In PMC11905058, “Novel Leech Antimicrobial Peptides, Hirunipins: Real‐Time 3D Monitoring of Antimicrobial and Antibiofilm Mechanisms Using Optical Diffraction Tomography” (Advanced Science, 2025):
Values after ≈ are worked out from the molar mass of the structure shown.

What was measured:
[1] = test system: S. aureus (KCTC 1621); experiment: Membrane depolarization assay (diSC3-5); assay type: cell-based, Staphylococcus aureus; conditions: diSC3-5 fluorescence, monitored 500 s
Description: The FL dye diSC3‐5 (3,3′‐dipropylthiadicarbocyanine iodide) was utilized to assess the depolarizing impact of peptides on the cytoplasmic membrane of S. aureus (KCTC 1621), following a previously established method.^[ [26], [27] ^]
Membrane Depolarization Assay: Briefly, mid-log phase S. aureus (KCTC 1621) was harvested and washed three times with 5 mM HEPES buffer (pH 7.4, containing 20 mM glucose), and resuspended to an OD600 of 0.05 in the same buffer. The cell suspension was incubated with 0.4 μM diSC3-5 for 90 min such that most of the dye molecules gathered at the cytoplasmic membrane. To equilibrate the cytoplasmic and external K^+ concentrations, KCl was added to the cell suspension containing diSC3-5 to obtain a final concentration of 100 mM, followed by incubating the cells at room temperature for 15−30 min, with peptide aliquots added to 2 mL of suspension. The fluorescence was recorded using a model RF-5301 PC fluorescence spectrophotometer (Shimadzu) at an excitation wavelength of 622 nm and an emission wavelength of 670 nm.

[2] = test system: S. aureus (KCTC 1621); experiment: PI influx assay by flow cytometry; assay type: cell-based, Staphylococcus aureus; conditions: 16 µg mL^−1, 60 min, 37 °C, PI 10 µg/mL, untreated 9.5%
Description: (§1) Damage to membrane integrity induced by the peptides was evaluated by flow cytometry of E. coli (KCTC 1682) and S. aureus (KCTC 1621) cells stained with the membrane‐impermeable dye PI, as previously described.^[ [26], [27] ^]
(§2) Flow Cytometry Analysis: E. coli (KCTC 1682) and S. aureus (KCTC 1621) were cultured in LB broth until they reached mid-log-phase, then washed and resuspended in PBS to a density of 2 × 10^5 CFU/mL. The bacterial suspension was incubated with the samples and 10 µg/mL of propidium iodide (PI), a fluorescent dye, at 37 °C for 1 hour in the dark. The samples were then centrifuged and washed twice in PBS to remove any excess dye. The fluorescence of PI, which indicates membrane damage, was measured by FACS flow cytometer (Agilent, ACEA Bioscience Inc.) using a laser excitation wavelength of 488 nm.

[3] = test system: E. coli (KCTC 1682); experiment: PI influx assay by flow cytometry; assay type: cell-based, Escherichia coli; conditions: 16 µg mL^−1, 60 min, 37 °C, PI 10 µg/mL, untreated 6.9%
Description: as §1, §2

[4] = test system: Escherichia coli [KCTC 1682]; assay type: cell-based; conditions: CLSI broth microdilution in MHB, 1×10^6 CFU/well, 37 °C, 24 h, optical density
Procedure, shortened: (§3)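 CLSI broth microdilution in Mueller-Hinton broth: mid-log bacteria at 1×10^6 CFU/well with two-fold serial peptide dilutions, 37 °C for 24 hours. MIC taken as lowest concentration preventing visible growth, with OD read on a plate reader.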

[5] = test system: Pseudomonas aeruginosa [KCTC 1637]; assay type: cell-based; conditions: CLSI broth microdilution in MHB, 1×10^6 CFU/well, 37 °C, 24 h, optical density
Procedure, shortened: as §3

[6] = test system: Staphylococcus epidermidis [KCTC 1917]; assay type: cell-based; conditions: CLSI broth microdilution in MHB, 1×10^6 CFU/well, 37 °C, 24 h, optical density
Procedure, shortened: as §3

[7] = test system: Staphylococcus aureus [KCTC1621]; assay type: cell-based; conditions: CLSI broth microdilution in MHB, 1×10^6 CFU/well, 37 °C, 24 h, optical density
Procedure, shortened: as §3

[8] = test system: MDRE (328-84); assay type: cell-based, Enterobacter cloacae; conditions: clinically isolated multidrug-resistant Enterobacter cloacae; broth microdilution
Description: The MICs of the peptides were measured by the Clinical and Laboratory Standards Institute (CLSI) broth microdilution method, as outlined in a previous study.^[ [26], [27] ^]
Microbial Strains and Cell Lines: Multiple bacterial strains were used in this study. Standard stains included Escherichia coli (KCTC 1682), Pseudomonas aeruginosa (KCTC 1637), Staphylococcus aureus (KCTC1621) and Staphylococcus epidermidis (KCTC 1917) supplied from the Korean Collection for Type Cultures (KCTC) of the Korea Research Institute of Bioscience and Biotechnology (KRIBB). Clinically isolated multidrug-resistant bacteria included multidrug-resistant Klebsiella pneumonia (MDRKP 328-83), multidrug-resistant Acinetobacter baumannii (MDRAB 329-53), multidrug-resistant Pseudomonas aeruginosa (MDRPA 314-69), multidrug-resistant Enterobacter cloacae (MDRE 328-84) and multidrug-resistant Escherichia coli (MDREC 329-66) provided from Hospital of Chosun University, Korea. All bacterial strains were stored in 20% glycerol at −80 °C. For the subsequent experiments, the bacteria were recovered and cultured in the corresponding enrichment broth at 37 °C. The mouse macrophage RAW264.7, mouse fibroblast NIH-3T3 and human keratinocyte HaCat cells were cultured in Dulbecco’s modified Eagle’s medium (DMEM), supplemented with 10% (v/v) of fetal bovine serum (Sigma-Aldrich), 100 U/mL of penicillin and 0.1 mg/mL of streptomycin, at 37 °C in the presence of 5% CO2
Minimal Inhibitory Concentrations (MICs): Bacteria were grown to mid-logarithmic phase and diluted in Mueller-Hinton broth (MHB) (Difco). The bacterial suspension (1×10^6 CFU/well) was added to a 96-well microtiter plate along with a two-fold serial dilution of samples. The plate was incubated at 37 °C for 24 hours and the bacterial growth inhibition was assessed by measuring the optical density using an ELISA plate reader. The minimum inhibitory concentration (MIC) was defined as the lowest concentration of samples that prevented visible bacterial growth.

[9] = test system: MDRAB (329-53)
Description: Synergy testing by checkerboard assay: Briefly, each 96-well microtiter plate was inoculated with two-fold serial dilutions of two antibiotics, ranging from 1/8 MIC to 2 MIC, such that one antibiotic was inoculated in the columns and the other in the rows. Then, MDRAB (329-53) cells were inoculated at a concentration of 1× 10^6 CFU/mL. The plates were incubated overnight under static conditions and observed visually.

[10] = test system: E. coli (KCTC 1682); experiment: Multipassage drug resistance study; assay type: cell-based, Escherichia coli; conditions: continuous exposure at sub-MIC (0.5×MIC)
Description: The MICs of hirunipin 2 and antibiotics were determined, and the concentration of each sub‐MIC (0.5×MIC) of E. coli (KCTC 1682) was diluted to 1 × 10^6 CFU mL^−1 with MHB for the next passaged MIC determination. This procedure was repeated fifteen times. Ciprofloxacin and tetracycline were used as the controls.

[11] = antibiotic in combination with hirunipin 2
[12] = in combination with hirunipin 2

Row | Compound | effect on membrane potential (in words) [1] | percentage of PI-positive cells, S. aureus (KCTC 1621) [2] [%] | percentage of PI-positive cells, E. coli (KCTC 1682) [3] [%] | Minimum inhibitory concentration (MIC), Escherichia coli [KCTC 1682] [4] [µg/mL] | Minimum inhibitory concentration (MIC), Pseudomonas aeruginosa [KCTC 1637] [5] [µg/mL] | Minimum inhibitory concentration (MIC), Staphylococcus epidermidis [KCTC 1917] [6] [µg/mL] | Minimum inhibitory concentration (MIC), Staphylococcus aureus [KCTC1621] [7] [µg/mL] | Minimum inhibitory concentrations, MDRE (328-84) [8] [µg/mL] | FICI: fractional inhibitory concentration index, FICA + FICB [9, 11] | Interpretation of FICI [9, 11] | MICA: MIC of antibiotic alone ([9]; checkerboard, MDRAB, 1×10^6 CFU/mL) [µg/mL] | FICA: fractional inhibitory concentration of antibiotic ([A] / MICA) [9, 12] | [A]: MIC of antibiotic in combination [9, 12] [µg/mL] | fold-change in the MICs after 15 passages [10] [fold]
1 | Buforin‐2 [Buforin-2] | did not affect membrane potential | 9.6 | 7.6 |  |  |  |  |  |  |  |  |  |  | 
2 | CC[C@H](C)[C@H](NC(=O)CN)C(=O)NCC(=O)N[C@@H](C)C(=O)N[C@H](C(=O)N[C@@H](CC(C)C)C(=O)N[C@@H](CCCCN)C(=O)N[C@H](C(=O)N[C@@H](CC(C)C)C(=O)N[C@H](C(=O)N[C@H](C(=O)NCC(=O)N[C@@H](CC(C)C)C(=O)N1CCC[C@H]1C(=O)N[C@@H](C)C(=O)N[C@@H](CC(C)C)C(=O)N[C@H](C(=O)N[C@@H](CO)C(=O)N[C@@H](Cc1c[nH]c2ccccc12)C(=O)N[C@H](C(=O)N[C@@H](CCCCN)C(=O)N[C@@H](CCCNC(=N)N)C(=O)N[C@@H](CCCCN)C(=O)N[C@@H](CCCNC(=N)N)C(=O)N[C@@H](CCC(N)=O)C(=O)N[C@@H](CCC(N)=O)C(N)=O)[C@@H](C)CC)[C@@H](C)CC)[C@@H](C)O)[C@@H](C)O)C(C)C)C(C)C [Melittin, reference compound] |  | 99.5 | 91.6 | 32 (≈ 11.2 µM) | 32 (≈ 11.2 µM) | 32 (≈ 11.2 µM) | 16 (≈ 5.62 µM) | 64 (≈ 22.5 µM) |  |  |  |  |  | 
3 | CN(C)[C@@H]1C(O)=C(C(N)=O)C(=O)[C@@]2(O)C(O)=C3C(=O)c4c(O)cccc4[C@@](C)(O)[C@H]3C[C@@H]12 [TET, Tetracycline] |  |  |  |  |  |  |  |  | 0.25 | synergy (FICI ≤ 0.5 was interpreted as synergy) | 16 | 0.125 | 2 | 32
